Here are results for three compounds from ChEMBL document CHEMBL4765364, “Synthesis, antibacterial and antifungal activity of new 3-biphenyl-3H-Imidazo[1,2-a]azepin-1-ium bromides” (Eur J Med Chem, 2020).

A value given as a limit tells only on which side of the number the result lay.

In general, MIC refers to the least concentration at which growth counts as inhibited. Read a low MIC as greater potency. Usually CC50 stands for the concentration giving 50% cytotoxicity.

Data set [1] concerns Staphylococcus aureus. Kind of data set: Antibacterial activity against methicillin resistant Staphylococcus aureus ATCC 43300 measured after 18 hrs. It is filed as functional.
Data set [2] relates to Escherichia coli. Description: Antibacterial activity against Escherichia coli ATCC 25922 measured after 18 hrs. The class given is functional.
Data set [3] concerns Klebsiella pneumoniae. Kind of data set: Antibacterial activity against Klebsiella pneumoniae ATCC 700603 measured after 18 hrs. It is filed as functional.
The test system of data set [4] is Acinetobacter baumannii. Kind of data set: Antibacterial activity against Acinetobacter baumannii ATCC 19606 measured after 18 hrs. It is filed as functional. To be noted: ATCC 19606 = CIP 70.34 = JCM 6841.
Data set [5] relates to Pseudomonas aeruginosa. Kind of data set: Antibacterial activity against Pseudomonas aeruginosa ATCC 27853 measured after 18 hrs. The class given is functional.
The test system of data set [6] is Candida albicans. Description: Antifungal activity against Candida albicans ATCC 90028 measured after 24 hrs by resazurin dye based assay. The class given is functional. (In general: The colour change of resazurin is a common sign of viable cells or microbes.)
Data set [7] has as its system Cryptococcus neoformans. Kind of data set: Antifungal activity against Cryptococcus neoformans ATCC 208821 measured after 24 hrs by resazurin dye based assay. It is filed as functional.
Data set [8] deals with Staphylococcus aureus. Kind of data set: Antibacterial activity against methicillin resistant Staphylococcus aureus ATCC 43300 at 32 ug/ml measured after 18 hrs. The class given is functional. Conditions: dose 32 µg/ml.
Data set [9] deals with Escherichia coli. Description: Antibacterial activity against Escherichia coli ATCC 25922 at 32 ug/ml measured after 18 hrs. The class given is functional. To be noted: dose 32 µg/ml.
The test system of data set [10] is Klebsiella pneumoniae. Description: Antibacterial activity against Klebsiella pneumoniae ATCC 700603 at 32 ug/ml measured after 18 hrs. The class given is functional. Conditions: dose 32 µg/ml.
Data set [11] deals with Acinetobacter baumannii. Description: Antibacterial activity against Acinetobacter baumannii ATCC 19606 at 32 ug/ml measured after 18 hrs. To be noted: dose 32 µg/ml. It is filed as functional, ATCC 19606 = CIP 70.34 = JCM 6841.
Data set [12] deals with Pseudomonas aeruginosa. Description: Antibacterial activity against Pseudomonas aeruginosa ATCC 27853 at 32 ug/ml measured after 18 hrs. It is filed as functional. To be noted: dose 32 µg/ml.
The test system of data set [13] is Candida albicans. Description: Antifungal activity against Candida albicans ATCC 90028 at 32 ug/ml measured after 24 hrs by resazurin dye based assay. The class given is functional. To be noted: dose 32 µg/ml.
The subject of data set [14] is Cryptococcus neoformans. Kind of data set: Antifungal activity against Cryptococcus neoformans ATCC 208821 at 32 ug/ml measured after 24 hrs by resazurin dye based assay. The class given is functional. Conditions: dose 32 µg/ml.
Data set [15] is described as follows: Cytotoxicity against HEK293 cells measured after 20 hrs by resazurin dye based fluorescence assay. The class given is cell-based. Conditions: human.

For the compound `OC1(c2ccc(-c3ccccc3)cc2)C[N+](c2ccc(Cl)cc2)=C2CCCCCN21.[Br-]` (stereo not given), the MIC against Staphylococcus aureus [1] is 16 mg/L; with Escherichia coli [2] it was more than 32 mg/L; in the data set with Klebsiella pneumoniae [3], more than 32 mg/L; in the data set with Acinetobacter baumannii [4] it was more than 32 mg/L; in the data set on Pseudomonas aeruginosa [5], 32 mg/L; with Candida albicans [6], more than 32 mg/L. In the data set with Cryptococcus neoformans [7], this compound had an MIC of more than 32 mg/L. Moreover, the Activity in the data set on Staphylococcus aureus [8], in the data set with Escherichia coli [9], in the data set with Klebsiella pneumoniae [10], in the data set with Acinetobacter baumannii [11], in the data set on Pseudomonas aeruginosa [12] and in the data set with Candida albicans [13] was more than 80% throughout. Moreover, the Activity with Cryptococcus neoformans [14] is given as more than 80%. Also, the CC50 at 20 h in [15] came to 3.9 mg/L.
Regarding `Cc1ccc([N+]2=C3CCCCCN3C(O)(c3ccc(-c4ccccc4)cc3)C2)cc1.[Br-]` (stereo not given), the MIC against Staphylococcus aureus [1] is 16 mg/L; against Escherichia coli [2], more than 32 mg/L; in the data set with Klebsiella pneumoniae [3], more than 32 mg/L; against Acinetobacter baumannii [4] it was more than 32 mg/L; against Pseudomonas aeruginosa [5], more than 32 mg/L; in the data set with Candida albicans [6], more than 32 mg/L. Also, the MIC in the data set on Cryptococcus neoformans [7] was more than 32 mg/L. The Activity with Staphylococcus aureus [8], in the data set on Escherichia coli [9], with Klebsiella pneumoniae [10], in the data set with Acinetobacter baumannii [11], with Pseudomonas aeruginosa [12] and in the data set with Candida albicans [13] was more than 80% each time. In the data set on Cryptococcus neoformans [14], this compound yielded an Activity of more than 80%. In data set [15], this compound yielded a CC50 at 20 h of 2.7 mg/L.
In the case of `CCOc1ccc([N+]2=C3CCCCCN3C(O)(c3ccc(-c4ccccc4)cc3)C2)cc1.[Br-]` (stereo not given), the MIC was 16 mg/L with Staphylococcus aureus [1]; more than 32 mg/L in the data set on Escherichia coli [2]; more than 32 mg/L in the data set on Klebsiella pneumoniae [3]; more than 32 mg/L in the data set on Acinetobacter baumannii [4]; more than 32 mg/L in the data set on Pseudomonas aeruginosa [5]; more than 32 mg/L with Candida albicans [6]. Also, in the data set on Cryptococcus neoformans [7], the lowest concentration to inhibit growth (MIC) was 32 mg/L. Also, the Activity in the data set on Staphylococcus aureus [8], with Escherichia coli [9], in the data set on Klebsiella pneumoniae [10], in the data set on Acinetobacter baumannii [11], in the data set with Pseudomonas aeruginosa [12] and in the data set on Candida albicans [13] was more than 80% throughout. The compound also had an Activity with Cryptococcus neoformans [14] of more than 80%. The same compound yielded a CC50 at 20 h in data set [15] of 2.4 mg/L.
